The record followed here is patent US20120064056A1, “DICHLORACETATE IN COMBINATION WITH CLINICALLY HIGH LEVELS OF CARDIOPROTECTIVE OR HEMODYNAMIC DRUGS” (THE GOVERNORS OF THE UNIVERSITY OF ALBERTA TEC Edmonton, priority 2002, published 2012).

The test system of experiment [1] is isolated rat hearts. Put plainly: Isolated working rat heart, aerobic perfusion: glycolysis and glucose oxidation. More on the design: glycolytic rates (glycolysis) / glucose oxidation rates: unit not given here. The following applies: for glucose oxidation rates / glycolytic rates (glycolysis): normal hearts, aerobic, DCA 2 mM, digoxin 3 nM, diltiazem 0.8 μM, dobutamine 1 μM, metoprolol 1 μM; for glucose oxidation rates: FIG. 1, 3, 5, 7, control 361±43; for glycolytic rates (glycolysis): FIG. 2, 4, 6, 8, control 3.430±0.604. The protocol: (§1) Rat hearts were cannulated for isolated working heart perfusions as described in “An imbalance between glycolysis and glucose oxidation is a possible explanation for the detrimental effects of high levels of fatty acids during aerobic reperfusion of ischemic hearts.”, (J Pharmacol Exp Ther. 264:135 (1993); herein incorporated by reference. In brief, male Sprague-Dawley rats (0.3-0.35 kg) were anesthetized with pentobarbital sodium (60 mg/kg IP) and hearts were quickly excised, the aorta was cannulated and a retrograde perfusion at 37° C. was initiated at a hydrostatic pressure of 60 mm Hg. Hearts were trimmed of excess tissue, and the pulmonary artery and the opening to the left atrium were then cannulated. After 15 min of Langendorff perfusion, hearts were switched to the working mode by clamping the aortic inflow line from the Langendorff reservoir and opening the left atrial inflow line. The perfusate was delivered from an oxygenator into the left atrium at a constant preload pressure of 11 mm Hg. Perfusate was ejected from spontaneously beating hearts into a compliance chamber (containing 1 ml of air) and into the aortic outflow line. The afterload was set at a hydrostatic pressure of 80 mm Hg. All working hearts were perfused with Krebs'-Henseleit solution containing calcium 2.5 mmol/L, glucose 5.5 mmol/L, 3% bovine serum albumin (Fraction V, Boehringer Mannheim), and with 1.2 mmol/L palmitate. Palmitate was bound to the albumin as described previously (Saddik M., et al. J Biol. Chem. 267:3825-3831 (1992)). The perfusate was recirculated, and pH was adjusted to 7.4 by bubbling with a mixture containing 95% O2 and 5% CO2. For the aerobic model hearts, all tested compounds were introduced into the heart 5 minutes into the working mode following Langendorff Perfusion.
Glycolysis and glucose oxidation were measured simultaneously by perfusing hearts with [5-^3H/U-^14C] glucose (Liu H., et al. Am J Physiol. 270:H72-H80 (1996); Taegtmeyer Het al. Am J Cardiol. 80:3A-10A (1997)). The total myocardial ^3H2O production and ^14CO2 production were determined at 10 minute intervals for the entirety of the aerobic period, 60 minutes for normal hearts and 30 minutes for the global ischemia and low flow demand ischemia models. In the global ischemia model, the total myocardial ^3H2O and ^14CO2 production were determined at 20 minute intervals for the 60 minute reperfusion period. In the low flow demand ischemia model, the total myocardial ^3H2O and ^14CO2 production were determined at 10 minute intervals for the 30 minute reperfusion period. Glucose oxidation rates were determined by quantitative measurement of ^14CO2 production as described previously (Barbour R. L., et al. Biochemistr. 1923:6503-6062 (1984)).

Experiment [2] concerns isolated rat hearts. Put plainly: Isolated working rat heart, aerobic perfusion: cardiac function and efficiency. More on the design: Cardiac Work (CO · PSP): unit not given beside the values. The conditions noted are these: for Aortic Outflow / Cardiac Efficiency (CW · O2^−1) / Cardiac Output / Cardiac Work (CO · PSP) / Coronary Flow / HR × PSP / Heart Rate / O2 Consumption / Peak Systolic Pressure: aerobically perfused, DCA 2 mM, diltiazem 0.8 μM, digoxin 3 nM, metoprolol 1 μM, dobutamine 1 μM; for effect on functional parameters shown in Table 2 incl. O2 consumption and cardiac efficiency, in words: compared to control. The protocol: as §1
Spontaneously beating hearts were used in all perfusions. Heart rate and aortic pressure were measured with a Biopac Systems Inc. blood pressure transducer connected to the aortic outflow line. Cardiac output and aortic flow were measured with Transonic T206 ultrasonic flow probes in the preload and afterload lines, respectively. Coronary flow was calculated as the difference between cardiac output and aortic flow. The O2 contents of the perfusate entering and leaving the heart were measured using YSI™ micro oxygen electrodes placed in the preload and pulmonary arterial lines, respectively. Myocardial O2 consumption (MVO2) was calculated according to the Fick principle, using coronary flow rates and the arteriovenous difference in perfusate O2 concentration. Cardiac work was calculated as the product of systolic pressure and cardiac output. Cardiac efficiency was defined as a ratio of cardiac work to MVO2.

The subject of experiment [3] is isolated rat hearts subjected to low flow demand ischemia. In words: Isolated working rat heart, low flow demand ischemia: cardiac function and efficiency. The following applies: DCA 2 mM, diltiazem 0.8 μM, metoprolol 1 μM. The protocol:
(§2) Hearts were trimmed of excess tissue, and the pulmonary artery and the opening to the left atrium were then cannulated. After 15 min of Langendorff perfusion, hearts were switched to the working mode by clamping the aortic inflow line from the Langendorff reservoir and opening the left atrial inflow line. The perfusate was delivered from an oxygenator into the left atrium at a constant preload pressure of 11 mm Hg. […] The afterload was set at a hydrostatic pressure of 80 mm Hg. […] Palmitate was bound to the albumin as described previously ([…]., et al. J Biol. Chem. 267:3825-3831 (1992)). […] For the aerobic model hearts, all tested compounds were introduced into the heart 5 minutes into the working mode following Langendorff Perfusion. Spontaneously beating hearts were used in all perfusions. Heart rate and aortic pressure were measured with a Biopac Systems Inc. blood pressure transducer connected to the aortic outflow line. Cardiac output and aortic flow were measured with Transonic […] ultrasonic flow probes in the preload and afterload lines, respectively. Coronary flow was calculated as the difference between cardiac output and aortic flow. […] Cardiac work was calculated as the product of systolic pressure and cardiac output. Cardiac efficiency was defined as a ratio of cardiac work to MVO2. […] All tested compounds were introduced into the perfusate five minutes into initiation of aerobic perfusion.

The subject of experiment [4] is isolated rat hearts subjected to global ischemia. Put plainly: Isolated working rat heart, global no flow ischemia and reperfusion: cardiac function and efficiency. The following applies: post-ischemic reperfusion, DCA 2 mM, digoxin 3 nM, metoprolol 1 μM. The protocol:
as §2, with “prior to reperfusion.” for “into initiation of aerobic perfusion.”

The mark [5] stands for this setting: low flow ischemia: aerobic period.
Setting [6] is: low flow ischemia: ischemic period.

Where “and” joins values, the source holds several entries; their conditions need not be identical. Equal entries are not always repeated.

Turning to `O=C(O)C(Cl)Cl` [DCA, dichloroacetate], in the experiment on isolated rat hearts [1] (aerobic model), the “increase in glucose oxidation” value is recorded as “over 400%” and the increase in glycolysis result is listed as “over 300%”. Further, in the experiment with isolated rat hearts [1], the glucose oxidation rates was 1697±179 and 1526±79; the “glycolytic rates (glycolysis)” value came out at 8.917±3.060. In addition, in the experiment on isolated rat hearts [2], the “Aortic Outflow” value was 30 ± 3 mL/min, the “Cardiac Efficiency (CW · O2^−1)” value is on record as 1.69 ± 0.19, the “Cardiac Output” value was 49 ± 4 mL/min and the “Cardiac Work (CO · PSP)” value was 61 ± 5. In the experiment on isolated rat hearts [2], the “Coronary Flow” value was determined as 20 ± 1 mL/min, the “HR × PSP” value is recorded as 32 ± 1 beats · min^−1 · mmHg · 10^−2, the “Heart Rate” value is 239 ± 8 beats · min^−1 and the “O2 Consumption” value was 38 ± 5 μmolO2 · g dry wt^−1 · min^−1. Further, the “Peak Systolic Pressure” value with isolated rat hearts [2] stood at 125 ± 3 mmHg. Also, in the experiment on isolated rat hearts [2] (normal hearts, aerobic), the “effect on functional parameters shown in Table 2 incl. O2 consumption and cardiac efficiency, in words” value was “no effect”. The “effect on functional parameters shown in Table 1 (heart rate, peak systolic pressure, HR×PSP), in words” value in the experiment with isolated rat hearts [2] (normal hearts, aerobic, compared to control (DCA and dobutamine: compared to dobutamine alone)) was “no significant effect”. For the same compound, in experiment [3] (setting [5]), the “Aortic Outflow” value was determined as 27 ± 3 mL/min, the “Cardiac Output” value turned out to be 50 ± 2 mL/min, the “Coronary Flow” value amounted to 22 ± 1 mL/min and the “HR × PSP” value is listed as 30 ± 1 beats · min^−1 · mmHg · 10^−2. Moreover, in experiment [3] (setting [5]), the “Heart Rate” value came out at 214 ± 7 beats · min^−1 and the “Peak Systolic Pressure” value amounted to 139 ± 3 mmHg. Further, in experiment [3] (setting [6]), the “Aortic Outflow” value was 13 ± 5 mL/min, the “Cardiac Output” value is 26 ± 5 mL/min, the “Coronary Flow” value was 13 ± 1 mL/min and the “HR × PSP” value is recorded as 30 ± 1 beats · min^−1 · mmHg · 10^−2. In experiment [3] (setting [6]), the “Heart Rate” value worked out at 214 ± 7 beats · min^−1 and the “Peak Systolic Pressure” value was found to be 139 ± 3 mmHg. Besides, in experiment [4], the “Aortic Outflow” value is 14 ± 6 mL/min, the “Cardiac Output” value was 35 ± 5 mL/min, the “Coronary Flow” value was determined as 21 ± 1 mL/min and the “HR × PSP” value is given as 18 ± 2 beats · min^−1 · mmHg · 10^−2. In addition, in experiment [4], the “Heart Rate” value is listed as 208 ± 11 beats · min^−1 and the “Peak Systolic Pressure” value turned out to be 87 ± 9 mmHg.
On to `CC(CCc1ccc(O)cc1)NCCc1ccc(O)c(O)c1` (stereo not drawn) [Dobutamine, dobutamine], for which the “increase in glucose metabolism” value in the experiment on isolated rat hearts [1] (aerobic model) was ~400%. Also, in the experiment on isolated rat hearts [1], the glucose oxidation rates was 1707±435 and the “glycolytic rates (glycolysis)” value is listed as 13.365±1.981. Also, in the experiment on isolated rat hearts [2], the “Aortic Outflow” value was 32 ± 3 mL/min, the “Cardiac Efficiency (CW · O2^−1)” value was determined as 1.56 ± 0.43, the “Cardiac Output” value worked out at 52 ± 2 mL/min and the “Cardiac Work (CO · PSP)” value was 64 ± 5. Besides, in the experiment on isolated rat hearts [2], the “Coronary Flow” value turned out to be 20 ± 4 mL/min, the “HR × PSP” value is 40 ± 2 beats · min^−1 · mmHg · 10^−2, the “Heart Rate” value is on record as 333 ± 7 beats · min^−1 and the “O2 Consumption” value is given as 44 ± 9 μmolO2 · g dry wt^−1 · min^−1. Moreover, in the experiment with isolated rat hearts [2], the “Peak Systolic Pressure” value was determined as 124 ± 3 mmHg. For the same compound, in the experiment on isolated rat hearts [2] (listed as dobutamine), the “HR × PSP” value is listed as 40±2 beats · min^−1 · mmHg · 10^−2 and the “Heart Rate” value was determined as 333±7 beats · min^−1. Further, the “effect on functional parameters shown in Table 2 incl. O2 consumption and cardiac efficiency, in words” value in the experiment with isolated rat hearts [2] (normal hearts, aerobic) was “no significant effect”.
